Assay results as given in patent publication US20090247519A1, “AMINO-ETHYL-AMINO-ARYL (AEAA) COMPOUNDS AND THEIR USE” (priority 2006, published 2009).

Target: T1, Human full length PKD2 (Homo sapiens, UniProt Q9BZL6)
T1 construct: Human full length PKD2 at ˜100 μg/mL was purchased from Upstate Ltd; purchased Upstate Ltd 14-506
T1 sequence (Q9BZL6 1-878): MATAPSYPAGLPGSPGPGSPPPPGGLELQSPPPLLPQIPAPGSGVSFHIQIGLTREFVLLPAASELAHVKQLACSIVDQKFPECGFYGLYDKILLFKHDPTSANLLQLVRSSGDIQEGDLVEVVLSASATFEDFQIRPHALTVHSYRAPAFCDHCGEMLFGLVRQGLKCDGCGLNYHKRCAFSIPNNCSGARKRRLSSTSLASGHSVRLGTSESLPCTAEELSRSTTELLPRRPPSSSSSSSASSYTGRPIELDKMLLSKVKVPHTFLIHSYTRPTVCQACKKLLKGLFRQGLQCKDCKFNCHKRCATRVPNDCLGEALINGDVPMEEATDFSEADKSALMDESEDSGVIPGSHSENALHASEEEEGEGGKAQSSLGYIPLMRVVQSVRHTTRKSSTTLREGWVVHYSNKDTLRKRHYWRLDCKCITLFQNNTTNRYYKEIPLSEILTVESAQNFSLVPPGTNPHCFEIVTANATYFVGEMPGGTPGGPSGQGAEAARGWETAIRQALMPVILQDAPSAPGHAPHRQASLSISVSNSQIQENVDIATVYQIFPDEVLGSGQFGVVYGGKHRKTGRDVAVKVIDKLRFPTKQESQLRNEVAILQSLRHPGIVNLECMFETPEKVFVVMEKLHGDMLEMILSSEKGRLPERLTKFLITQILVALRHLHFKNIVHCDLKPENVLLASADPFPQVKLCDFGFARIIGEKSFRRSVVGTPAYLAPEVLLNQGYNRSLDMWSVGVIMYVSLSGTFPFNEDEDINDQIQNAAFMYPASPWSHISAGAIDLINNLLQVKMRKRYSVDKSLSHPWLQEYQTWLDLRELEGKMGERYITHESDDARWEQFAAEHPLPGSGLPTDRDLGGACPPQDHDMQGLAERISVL
Test: PKD2 (Human Full Length) Enzyme Activity Assay (IMAP fluorescence polarisation)
Assay type: biochemical
Conditions: 10 point dose-response
Description: PKD2 (Human Full Length) Enzyme Activity Assay
Kinase Assay Reaction Buffer: This consisted of 0.22 μM filtered 25 mM HEPES and 10 mM MgCl2 pH 7.5.
Kinase: Human full length PKD2 at ˜100 μg/mL was purchased from Upstate Ltd (Product code 14-506), and obtained from aliquots stored at −70° C. It was prepared with a final concentration of […] by diluting 1:300 in Reaction Buffer (30 μL per 9 mL-5 mL per plate with an additional 4 mL dead volume) and vortexing prior to use. It is necessary to check this concentration regularly in case of enzyme degradation. […]
5 μL Kinase/Substrate in Reaction Buffer was added to ‘test’ and all ‘control’ wells of a Corning black low binding 384 well (90 μL volume) microplate to give 0.1 μg/mL and 2 μM reaction concentration respectively. […] The fluorescence polarisation of the peptide substrate was measured using an analyst (Molecular devices) microplate reader with a single read at Ex485 Em535 (Analyst settings: Z Height 5 mm, G Factor 0.95, Reads/well 1, Integration 100000 μs, Gain Sensitivity 2).
Percentage inhibition was calculated based on activity of the test sample minus the average values in the blank wells relative to the average values measured in control wells minus the average values in the blank wells.
IC50 values were calculated from 10 point dose sigmoid ‘dose-response’ curves using XIfit software (IDBS inc, USA). […]

## CC[C@@H](N)CN(C)c1ccnc(-c2cc(Cl)ccc2O)n1 [XX-276, 2-{4-[((R)-2-Amino-butyl)-methyl-amino]-pyrimidin-2-yl}-4-chloro-phenol]
  IC50: 4.1 nM
